Assay results from patent US10889625B2, “Peptide-based methods for treating neurological injury” (THE REGENTS OF THE UNIVERSITY OF COLORADO, a body corporate, priority 2016, dated 2021).
Residues, ends and D or L forms follow the SMILES beside them.

Legend:
TRPM2 channels = biological target: T1, TRPM2 channels (Mus musculus, UniProt Q91YD4); test: 60 min tMCAO, total hemisphere infarct volume (TTC) in WT mice; format: in vivo; conditions: given 3 hours after MCAO
T1 construct: from tissue; host or cells: mouse brain in vivo; acute hippocampal/brain slices from mice
T1 sequence (Q91YD4 whole entry): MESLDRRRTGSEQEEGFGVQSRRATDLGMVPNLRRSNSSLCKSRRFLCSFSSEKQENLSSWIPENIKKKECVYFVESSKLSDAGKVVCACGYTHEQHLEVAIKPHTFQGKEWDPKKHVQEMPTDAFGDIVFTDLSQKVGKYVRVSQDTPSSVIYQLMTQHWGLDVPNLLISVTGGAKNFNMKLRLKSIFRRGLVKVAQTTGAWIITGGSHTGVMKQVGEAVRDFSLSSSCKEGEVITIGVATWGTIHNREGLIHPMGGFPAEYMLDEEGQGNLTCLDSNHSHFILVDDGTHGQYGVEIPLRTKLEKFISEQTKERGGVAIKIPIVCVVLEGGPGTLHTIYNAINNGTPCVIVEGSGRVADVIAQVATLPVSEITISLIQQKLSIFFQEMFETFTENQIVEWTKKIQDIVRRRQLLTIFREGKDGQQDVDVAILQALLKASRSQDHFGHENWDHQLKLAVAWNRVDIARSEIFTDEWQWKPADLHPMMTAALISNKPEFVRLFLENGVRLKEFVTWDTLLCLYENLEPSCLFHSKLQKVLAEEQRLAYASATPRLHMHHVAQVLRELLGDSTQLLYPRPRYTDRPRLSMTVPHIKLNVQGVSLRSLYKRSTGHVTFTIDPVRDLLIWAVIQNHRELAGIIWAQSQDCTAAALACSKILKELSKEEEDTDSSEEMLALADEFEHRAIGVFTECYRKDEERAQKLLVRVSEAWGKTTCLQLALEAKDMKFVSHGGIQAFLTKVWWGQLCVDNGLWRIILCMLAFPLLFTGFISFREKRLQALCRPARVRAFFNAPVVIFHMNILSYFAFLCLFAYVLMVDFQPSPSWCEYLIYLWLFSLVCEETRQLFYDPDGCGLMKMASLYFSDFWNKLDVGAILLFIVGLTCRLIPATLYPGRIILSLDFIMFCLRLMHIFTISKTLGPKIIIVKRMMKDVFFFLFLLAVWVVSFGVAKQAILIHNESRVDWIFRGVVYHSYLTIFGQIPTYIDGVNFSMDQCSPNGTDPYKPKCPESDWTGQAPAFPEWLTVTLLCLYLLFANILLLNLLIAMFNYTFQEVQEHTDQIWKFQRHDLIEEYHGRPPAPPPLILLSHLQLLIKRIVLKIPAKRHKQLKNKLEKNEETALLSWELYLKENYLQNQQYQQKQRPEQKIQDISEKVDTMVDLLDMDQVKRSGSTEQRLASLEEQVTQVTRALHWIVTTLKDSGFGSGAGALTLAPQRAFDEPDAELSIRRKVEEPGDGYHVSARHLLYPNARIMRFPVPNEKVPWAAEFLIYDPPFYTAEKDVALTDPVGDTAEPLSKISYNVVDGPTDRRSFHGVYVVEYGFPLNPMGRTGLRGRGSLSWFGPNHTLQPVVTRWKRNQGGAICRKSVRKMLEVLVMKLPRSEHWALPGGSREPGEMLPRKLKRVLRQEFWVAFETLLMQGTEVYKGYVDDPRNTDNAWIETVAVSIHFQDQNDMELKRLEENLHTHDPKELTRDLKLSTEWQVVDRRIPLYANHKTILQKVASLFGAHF

TRPM2 ion channels = TRPM2 ion channels (Mus musculus, UniProt Q91YD4); conditions: males and females, background statement; cited from earlier work
Sequence of TRPM2 ion channels (Q91YD4 whole entry): as above

[1] = mice, MCAO

Row | SMILES | infarct volume (TRPM2 channels) [%] | infarct size following stroke (TRPM2 ion channels) | effect on physiological variables such as blood pressure [1]
1 | Clc1ccccc1C(c1ccccc1)(c1ccccc1)n1ccnc1 [CTZ, clotrimazole] | 46.8±7.4 | reduces infarct size in males, but not females | 
2 | CSCC[C@H](NC(=O)[C@H](CCC(=O)O)NC(=O)CNC(=O)[C@@H]1CCCN1C(=O)[C@H](CCC(=O)O)NC(=O)[C@H](CCCNC(=N)N)NC(=O)[C@H](CO)NC(=O)CNC(=O)[C@H](CCCNC(=N)N)NC(=O)[C@H](CCCNC(=N)N)NC(=O)[C@H](CCCNC(=N)N)NC(=O)[C@H](CCC(N)=O)NC(=O)[C@H](CCCNC(=N)N)NC(=O)[C@H](CCCNC(=N)N)NC(=O)[C@H](CCCCN)NC(=O)[C@H](CCCCN)NC(=O)[C@H](CCCNC(=N)N)NC(=O)CNC(=O)[C@@H](N)Cc1ccc(O)cc1)C(=O)N[C@@H](CC(C)C)C(=O)N1CCC[C@H]1C(=O)N[C@@H](CCCNC(=N)N)C(=O)N[C@@H](CCCCN)C(=O)N[C@@H](CC(C)C)C(=O)N[C@@H](CCCCN)C(=O)N[C@@H](CCCNC(=N)N)C(=O)N[C@H](C(=O)N[C@@H](CC(C)C)C(=O)N[C@@H](CCCNC(=N)N)C(=O)N[C@@H](CCC(N)=O)C(=O)N[C@@H](CCC(=O)O)C(=O)N[C@@H](Cc1ccccc1)C(=O)N[C@@H](Cc1c[nH]c2ccccc12)C(=O)N[C@H](C(=O)O)C(C)C)C(C)C [tat-M2NX] (H-YGRKKRRQRRRGSREPGEMLPRKLKRVLRQEFWV-OH; N-terminus and C-terminus assumed) |  |  | no effect
